Where two headings read alike, the source gives them in different places.
Experiments:
DosS [1] = target: T1, DosS (Mycobacterium tuberculosis, UniProt P9WGK3); type: binding; settings: for binding to DosS heme iron (heme-nitrosyl / heme-carbonyl formation): ferrous DosS (DTH treated), UV-visible and EPR spectroscopy
DosT [2] = target: T2, DosT (Mycobacterium tuberculosis, UniProt P9WGK1); type: binding; settings: for binding to DosT heme iron (nitrosylated / carbonylated heme formation): deoxy DosT (DTH treated), UV-visible and EPR spectroscopy; for binding to DosT heme iron in the presence of O2: oxy DosT (Fe2+-O2)
DosS [3] = target: T1, DosS; type: biochemical
Protocol: (§1) In-vitro phosphorylation assays were performed according to previously described methods (Roberts et al., J. Biol. Chem., 2004, 279:22) and analyzed on 4-20% Tris-HCl gradient PAGE gels, dried and exposed to X-ray film overnight at −80° C. Formation of a heme-nitrosyl/carbonyl complex was first confirmed by absorption spectroscopy before analyzing samples for autokinase activity. As an additional control, air exposed samples were also treated with proline NONOate. The effect of CO on autokinase activity was measured similarly as described for NO, except that protein samples were flushed with 100% CO for 30 seconds. All autokinase reactions were performed inside the glove box.

DosT [4] = target: T2, DosT; type: biochemical
Protocol: as §1

[5] = DTH reduced DosS (Fe2+) exposed to ligand, relative to met DosS

T2 sequence (P9WGK1 whole entry): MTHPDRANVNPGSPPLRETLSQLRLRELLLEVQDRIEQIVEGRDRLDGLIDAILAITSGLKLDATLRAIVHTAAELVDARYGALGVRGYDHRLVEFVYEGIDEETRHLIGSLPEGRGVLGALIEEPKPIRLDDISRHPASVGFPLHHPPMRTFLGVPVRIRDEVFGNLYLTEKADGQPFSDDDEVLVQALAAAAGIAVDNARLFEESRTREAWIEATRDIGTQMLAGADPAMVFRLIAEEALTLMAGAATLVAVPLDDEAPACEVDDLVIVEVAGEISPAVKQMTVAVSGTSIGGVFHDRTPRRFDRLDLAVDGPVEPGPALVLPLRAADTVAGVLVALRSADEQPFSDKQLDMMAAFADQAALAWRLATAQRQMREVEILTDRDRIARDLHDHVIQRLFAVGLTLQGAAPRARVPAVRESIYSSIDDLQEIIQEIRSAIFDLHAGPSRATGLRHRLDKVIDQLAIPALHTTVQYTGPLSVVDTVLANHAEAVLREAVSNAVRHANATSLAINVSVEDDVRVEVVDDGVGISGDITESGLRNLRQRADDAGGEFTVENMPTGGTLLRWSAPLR
T1 sequence (P9WGK3 whole entry): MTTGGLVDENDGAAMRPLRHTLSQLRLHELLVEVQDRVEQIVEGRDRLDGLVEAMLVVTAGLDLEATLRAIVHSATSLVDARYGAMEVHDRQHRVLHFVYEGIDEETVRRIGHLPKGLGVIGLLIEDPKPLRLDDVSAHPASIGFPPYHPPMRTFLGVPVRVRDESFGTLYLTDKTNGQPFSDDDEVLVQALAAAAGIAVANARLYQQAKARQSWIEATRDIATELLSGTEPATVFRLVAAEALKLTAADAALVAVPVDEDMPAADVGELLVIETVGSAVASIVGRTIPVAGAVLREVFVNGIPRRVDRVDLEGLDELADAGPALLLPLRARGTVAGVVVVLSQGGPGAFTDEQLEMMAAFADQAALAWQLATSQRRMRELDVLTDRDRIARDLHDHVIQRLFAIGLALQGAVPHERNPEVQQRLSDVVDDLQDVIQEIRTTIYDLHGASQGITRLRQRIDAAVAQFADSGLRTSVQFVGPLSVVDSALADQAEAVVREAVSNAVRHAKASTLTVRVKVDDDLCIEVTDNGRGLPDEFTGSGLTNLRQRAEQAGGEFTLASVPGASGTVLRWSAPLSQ

**Q.** How did the “binding to DosS heme iron (heme-nitrosyl / heme-carbonyl formation)” value (DosS [1]) turn out when [C-]#[O+] [CO, carbon monoxide] was run?
**A.** generated heme-nitrosyl and heme-carbonyl DosS species

**Q.** And the “binding to DosT heme iron (nitrosylated / carbonylated heme formation)” value (DosT [2])?
**A.** highly characteristic of the formation of nitrosylated and carbonylated heme species

**Q.** What about the “binding to DosT heme iron in the presence of O2” value (“binding … of O2” below) (DosT [2]) of the same compound?
**A.** highly indicative of a heme-carbonyl complex

**Q.** And the “effect on DosS autokinase activity” value (DosS [3]; [5])?
**A.** significantly increased autokinase activity as compared to inactive met DosS

**Q.** What about the “effect on DosS autokinase activity” value (DosS [3]; met DosS (Fe3+) exposed to ligand) of the same compound?
**A.** found not to generate any further autokinase activity

**Q.** What about the “rank of DosT autokinase activity” value (DosT [4]; deoxy DosT (DTH reduced) treated with ligand vs untreated) of the same compound?
**A.** deoxy DosT showed the highest autokinase activity, followed by CO-DosT and finally oxy DosT

**Q.** What about the “effect on DosT autokinase activity” value (DosT [4]; oxy DosT treated with ligand on the bench) of the same compound?
**A.** significantly enhanced autokinase activity compared to inactive oxy DosT

**Q.** With [N]=O [NO, nitric oxide] as the compound, how does the “binding to DosS heme iron (heme-nitrosyl / heme-carbonyl formation)” value (DosS [1]) read?
**A.** binds DosS

**Q.** What about the “binding to DosT heme iron (nitrosylated / carbonylated heme formation)” value (DosT [2]) of the same compound?
**A.** binds deoxy DosT

**Q.** And the “binding … of O2” value (DosT [2])?
**A.** but not NO can effectively substitute O2 from oxy DosT

**Q.** What about the “effect on DosS autokinase activity” value (DosS [3]; [5]) of the same compound?
**A.** significantly increased autokinase activity to levels comparable to active ferrous DosS autokinase activity

**Q.** And the “effect on DosT autokinase activity” value (DosT [4]; ligand bound to DosT, compared with deoxy or oxy DosT)?
**A.** significantly increased autokinase activity as compared to inactive oxy DosT

**Q.** O=O [O2, oxygen] was tested. Which “effect on DosS heme iron oxidation state” value (DosS [1]) did it give?
**A.** rapidly oxidized by O2 to generate met DosS

**Q.** What about the “state of DosT heme iron after air exposure” value (DosT [2]) of the same compound?
**A.** air exposed DosT is in the oxygen bound (oxy) form

**Q.** What about the “effect on DosS autokinase activity” value (DosS [3]) of the same compound?
**A.** dramatically decreases its autokinase activity

**Q.** And the “effect on DosT autokinase activity” value (DosT [4])?
**A.** inhibits autokinase activity

**Q.** Which “binding to DosS heme iron (nitrosyl-heme EPR signal)” value (DosS [1]; air exposed (met, Fe3+) DosS) does the source give for O=C([O-])[C@@H]1CCCN1/[N+]([O-])=N/[O-].[Na+].[Na+] [proline NONOate] here?
**A.** no EPR signal characteristic of a nitrosyl-heme species was generated

**Q.** And the “binding … of O2” value (DosT [2])?
**A.** did not generate any detectable nitrosyl-heme species
